Results on two compounds are retold here after ChEMBL document CHEMBL1144089, “New geodiamolides from the sponge Cymbastela sp. collected in Papua New Guinea” (J Nat Prod, 1999).

One test relates to HEY. The test can be described thus: Cytotoxicity against human HEY cells. The class given is functional, cell-based.
The nature of test [1]: Cytotoxicity against human U373 cells. In kind it is functional, cell-based, U-373MG ATCC. The settings on record: U373 MG.

Values after ≈ are worked out from the molar mass of the structure shown.

The IC50 is the midpoint of a concentration-inhibition curve. Consider `C/C1=C\[C@H](C)C[C@H](C)OC(=O)[C@H](C)NC(=O)[C@@H](Cc2ccc(O)c(I)c2)N(C)C(=O)[C@H](C)NC(=O)[C@@H](C)C1` [GEODIAMOLIDE A], for which the IC50 in the test on HEY (read-out: IC50) came out at 43 µg/mL (≈ 67 µM); in test [1] (read-out: IC50) it was 16 µg/mL (≈ 24.9 µM).
For the compound `C=C1C[C@H](C)C(=O)N[C@@H](C)C(=O)N(C)[C@H](Cc2ccc(O)c(I)c2)C(=O)N[C@@H](C)C(=O)O[C@@H](C)C[C@@H](C)C1=O` [GEODIAMOLIDE G], the IC50 in the test with HEY turned out to be 8.6 µg/mL (≈ 13.1 µM); in test [1], 7.7 µg/mL (≈ 11.7 µM).
